Experimental findings from PubChem BioAssay AID1919013 (Molecular Pharmacology Branch, DTP, NCI, 2023) are described below.

Where “and” joins values, the source holds several entries; their conditions need not be identical. Equal entries are not always repeated. Where only a bound is given, the exact number is not on record here.

The experiment concerns LG0703-F498-PDC complex spheroid growth. Description: Anticancer human tumor LG0703-F498-PDC patient-derived lung adenocarcinoma cell line growth inhibition [AhR]. To be noted: for viability, T/C: stronger effect = lower value. An outline of the steps:
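Agents were dosed in half-log steps down from roughly clinical Cmax, or from 10 microM where Cmax was unknown, alone and with AhR antagonists. Read-out: percent test/control growth of tumor spheroids containing HUVEC and MSC stromal cells.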

[1] abbreviates: curve of first compound, second compound 0.1 µM.
Where [2] appears, read: curve of first compound, second compound 0.316 µM.
Where [3] appears, read: curve of first compound, second compound 1 µM.
Setting [4] is: curve of first compound, second compound 3.16 µM.
Where [5] appears, read: curve of first compound, second compound 10 µM.

What is called viability, T/C is the result in the treated group divided by that in the control group, in per cent. By IC50 is commonly meant the concentration that inhibits the measured activity by half.
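Further: luminescence taken as a proxy for viable cell amount.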
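Wherever viability, T/C is given: percent of DMSO vehicle control where 100% means growth equal to vehicle.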

For `CC(C)CC(NC(=O)C(Cc1ccccc1)NC(=O)c1cnccn1)B(O)O` (stereo unspecified), the viability, T/C runs as follows: (compound 0.000949 µM) 99.7% and 97.7% and 92.7%; (compound 0.003 µM) 69.5% and 94.8% and 48.4%; (compound 0.00949 µM) 6.8% and 9.74% and 2.07%; (compound 0.03 µM) 0.44% and 0.8% and 0.23%; (compound 0.0949 µM) 0.15% and 0.2% and 0.16%; (compound 0.3 µM) 0.19% and 0.35% and 0.18%. The IC50 (curve of compound) was 4.29 nM and 5.5 nM and 2.88 nM.
Take `CC1COCCN1c1cc(-c2ccnn2C)c2ccnc(-c3ccn[nH]3)c2n1` (stereo unspecified) + Cc1cncc(-c2nc(NCCc3c[nH]c4ccccc34)c3ncn(C(C)C)c3n2)c1: the IC50 under setting [1] came out at 621 nM; the IC50 under setting [2] amounted to 279 nM; the IC50 under setting [3] came out at 468 nM; the IC50 under setting [4] was less than 3.16 nM; the IC50 under setting [5] was less than 3.16 nM. Also, the viability, T/C is 104% (second compound 0.1 µM, first compound 0.00316 µM); 103% (second compound 0.1 µM, first compound 0.01 µM); 112% (second compound 0.1 µM, first compound 0.0316 µM); 82.3% (second compound 0.1 µM, first compound 0.1 µM); 64.6% (second compound 0.1 µM, first compound 0.316 µM); 40.8% (second compound 0.1 µM, first compound 1 µM). Also, the viability, T/C runs as follows: (second compound 0.316 µM, first compound 0.00316 µM) 111%; (second compound 0.316 µM, first compound 0.01 µM) 120%; (second compound 0.316 µM, first compound 0.0316 µM) 102%; (second compound 0.316 µM, first compound 0.1 µM) 76.4%; (second compound 0.316 µM, first compound 0.316 µM) 47.5%; (second compound 0.316 µM, first compound 1 µM) 34.3%. The viability, T/C is 119% (second compound 1 µM, first compound 0.00316 µM); 112% (second compound 1 µM, first compound 0.01 µM); 111% (second compound 1 µM, first compound 0.0316 µM); 83.2% (second compound 1 µM, first compound 0.1 µM); 58.9% (second compound 1 µM, first compound 0.316 µM); 35.5% (second compound 1 µM, first compound 1 µM). Further, the viability, T/C (second compound 3.16 µM, first compound 0.00316 µM) was 38%; the viability, T/C (second compound 3.16 µM, first compound 0.01 µM) was 34.6%; the viability, T/C (second compound 3.16 µM, first compound 0.0316 µM) was 33.2%; the viability, T/C (second compound 3.16 µM, first compound 0.1 µM) was 27.5%; the viability, T/C (second compound 3.16 µM, first compound 0.316 µM) is 18.7%; the viability, T/C (second compound 3.16 µM, first compound 1 µM) is 15.7%. Further, the viability, T/C (second compound 10 µM, first compound 0.00316 µM) is 1.11%; the viability, T/C (second compound 10 µM, first compound 0.01 µM) is 1.21%; the viability, T/C (second compound 10 µM, first compound 0.0316 µM) is 1.42%; the viability, T/C (second compound 10 µM, first compound 0.1 µM) is 1.71%; the viability, T/C (second compound 10 µM, first compound 0.316 µM) was 0.8%; the viability, T/C (second compound 10 µM, first compound 1 µM) is 2.39%.
Regarding `NS(=O)(=O)OCC1CC(n2ccc3c(NC4CCc5ccccc54)ncnc32)CC1O` (stereo unspecified), the viability, T/C by setting is: (compound 0.0316 µM) 94.3% and 100% and 101%; (compound 0.1 µM) 105% and 96.8% and 99.1%; (compound 0.316 µM) 107% and 102% and 97.8%; (compound 1 µM) 89.2% and 103% and 86.7%; (compound 3.16 µM) 65.2% and 76.8% and 62.9%; (compound 10 µM) 35.8% and 47% and 34.9%. The IC50 (curve of compound) is 5660 nM and 8900 nM and 5360 nM.
Consider `Cn1ncnc1C1c2n[nH]c(=O)c3cc(F)cc(c23)NC1c1ccc(F)cc1` (stereo unspecified), for which the viability, T/C was 97.7% and 91.1% and 110% (compound 0.000316 µM); 106% and 103% and 98.6% (compound 0.001 µM); 96.4% and 111% and 102% (compound 0.00316 µM); 94% and 97.9% and 89.2% (compound 0.01 µM); 107% and 106% and 95.7% (compound 0.0316 µM); 86.6% and 102% and 90% (compound 0.1 µM). Also, the IC50 (curve of compound) was more than 100 nM.
`CC(C)CC(NC(=O)C(Cc1ccccc1)NC(=O)c1cnccn1)B(O)O` (stereo unspecified) + CC(CO)NC(=O)c1cc(-c2ccc(Cl)cc2)nn(-c2cnn(C)c2)c1=O: the IC50 amounted to 2.38 nM under setting [1]; 2.52 nM under setting [2]; 2.12 nM under setting [3]; 2.09 nM under setting [4]; 1.88 nM under setting [5]. For the same molecule, the viability, T/C by setting is: (second compound 0.1 µM, first compound 0.000949 µM) 76.8%; (second compound 0.1 µM, first compound 0.003 µM) 43.2%; (second compound 0.1 µM, first compound 0.00949 µM) 1.95%; (second compound 0.1 µM, first compound 0.03 µM) 0.49%; (second compound 0.1 µM, first compound 0.0949 µM) 0.12%; (second compound 0.1 µM, first compound 0.3 µM) 0.2%. The viability, T/C is, setting by setting: (second compound 0.316 µM, first compound 0.000949 µM) 80%; (second compound 0.316 µM, first compound 0.003 µM) 44.7%; (second compound 0.316 µM, first compound 0.00949 µM) 3.04%; (second compound 0.316 µM, first compound 0.03 µM) 0.34%; (second compound 0.316 µM, first compound 0.0949 µM) 0.17%; (second compound 0.316 µM, first compound 0.3 µM) 0.17%. Also, the viability, T/C was 75.9% (second compound 1 µM, first compound 0.000949 µM); 38.8% (second compound 1 µM, first compound 0.003 µM); 2.08% (second compound 1 µM, first compound 0.00949 µM); 0.36% (second compound 1 µM, first compound 0.03 µM); 1.04% (second compound 1 µM, first compound 0.0949 µM); 0.16% (second compound 1 µM, first compound 0.3 µM). The viability, T/C by setting is: (second compound 3.16 µM, first compound 0.000949 µM) 78%; (second compound 3.16 µM, first compound 0.003 µM) 37.3%; (second compound 3.16 µM, first compound 0.00949 µM) 1.6%; (second compound 3.16 µM, first compound 0.03 µM) 0.13%; (second compound 3.16 µM, first compound 0.0949 µM) 0.63%; (second compound 3.16 µM, first compound 0.3 µM) 1.52%. In addition, the viability, T/C is 71.2% (second compound 10 µM, first compound 0.000949 µM); 35.5% (second compound 10 µM, first compound 0.003 µM); 1.37% (second compound 10 µM, first compound 0.00949 µM); 0.23% (second compound 10 µM, first compound 0.03 µM); 0.25% (second compound 10 µM, first compound 0.0949 µM); 0.21% (second compound 10 µM, first compound 0.3 µM).
